Laboratory results from US9957271B2, “Substituted bicyclic aza-heterocycles and analogues as sirtuin modulators” (GlaxoSmithKline, LLC, priority 2012, dated 2018).
Read-outs that look alike come from different tables or passages of the source.

Target: T1, SIRT1 (Homo sapiens, UniProt Q96EB6)
T1 sequence (Q96EB6 1-747): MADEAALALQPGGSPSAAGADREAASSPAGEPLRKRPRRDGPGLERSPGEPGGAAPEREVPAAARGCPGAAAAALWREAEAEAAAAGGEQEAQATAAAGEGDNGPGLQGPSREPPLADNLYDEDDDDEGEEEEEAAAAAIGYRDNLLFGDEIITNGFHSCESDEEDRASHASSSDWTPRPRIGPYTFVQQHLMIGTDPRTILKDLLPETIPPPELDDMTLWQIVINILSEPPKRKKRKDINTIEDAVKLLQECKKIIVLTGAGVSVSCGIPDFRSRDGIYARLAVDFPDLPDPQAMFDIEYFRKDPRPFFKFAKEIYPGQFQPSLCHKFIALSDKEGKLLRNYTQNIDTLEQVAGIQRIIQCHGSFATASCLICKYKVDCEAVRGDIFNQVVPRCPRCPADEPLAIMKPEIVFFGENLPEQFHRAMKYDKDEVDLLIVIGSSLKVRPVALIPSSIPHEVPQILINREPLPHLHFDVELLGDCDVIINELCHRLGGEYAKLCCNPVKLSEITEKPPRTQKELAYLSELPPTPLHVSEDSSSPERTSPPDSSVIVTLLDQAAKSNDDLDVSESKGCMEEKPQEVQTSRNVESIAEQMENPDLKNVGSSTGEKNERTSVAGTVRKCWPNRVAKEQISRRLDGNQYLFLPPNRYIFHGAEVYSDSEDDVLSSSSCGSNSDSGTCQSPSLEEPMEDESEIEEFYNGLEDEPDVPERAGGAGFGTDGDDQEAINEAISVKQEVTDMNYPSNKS
Assay: TAMRA based mass spectrometry assay of SIRT1 activity
Assay type: biochemical
Conditions: for Emax: read-out: TAMRA % Fold Act
Procedure, shortened: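 Deacetylation of a biotinylated, TAMRA-tagged p53-based peptide (0.5 μM) by 10 nM His-tagged SIRT1 with 120 μM βNAD+, 25 °C for 25 min, pH 8 Tris-acetate buffer, across a compound concentration range. Quenched by formic acid and read by mass spec as product peptide or OAADPR; activity relative to DMSO reactions, nicotinamide defining maximal inhibition.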

[1] = TAMRA assay, concentration giving 150% activation of SIRT1
[2] = TAMRA assay, percent maximum fold activation
[3] = concentration of test compound giving 150% activation of SIRT1, TAMRA peptide substrate
[4] = percent maximum fold activation of SIRT1, TAMRA peptide substrate
[5] = TAMRA peptide substrate, concentration giving 150% activation of SIRT1
[6] = TAMRA peptide substrate, percent maximum fold activation

| TAMRA EC1.5 (μM) [1] | Emax [2] | TAMRA EC1.5 (μM) [3] | Emax [4] | SMILES | further results |
| --- | --- | --- | --- | --- | --- |
| B (EC1.5 1-25 μM) | < 350% | – | – | O=C(Nc1cccc(OCC(O)CO)n1)c1c(O)nc2ccc(-c3ccccc3C(F)(F)F)nn12 (stereo not drawn) [Compound 344] | – |
| – | – | A (EC1.5<1 μM) | ≥ 350% | O=C(Nc1ccnc(OCC(O)CO)c1)c1cnc2ccc(-c3ccccc3C(F)(F)F)nn12 (stereo not drawn) [Compound 89] | – |
| – | – | – | – | O=C(Nc1cncc(OC[C@@H](O)CO)n1)c1cnc2ccc(-c3ccccc3C(F)(F)F)nn12 [Compound 556, (S)-N-(6-(2,3-dihydroxypropoxy)pyrazin-2-yl)-6-(2-(trifluoromethyl)phenyl)imidazo[1,2-b]pyridazine-3-carboxamide] | TAMRA EC1.5 [5]: A (EC1.5<1 μM); Emax [6]: ≥ 350% |
| – | – | B (EC1.5 1-25 μM) | < 350% | O=C(Nc1cnccn1)c1cnc2ccc(-c3cccc(Cl)c3F)nn12 [Compound 157] | – |
| B (EC1.5 1-25 μM) | < 350% | – | – | N#Cc1ccccc1-c1ccc2ncc(C(=O)Nc3ccccn3)n2n1 [Compound 200] | – |
| – | – | – | – | O=C(Nc1cccc(N2CC3(COC3)C2)n1)c1cnc2ccc(-c3ccccc3C(F)(F)F)nn12 [Compound 537] | TAMRA EC1.5 [5]: A (EC1.5<1 μM); Emax [6]: ≥ 350% |
| – | – | – | – | O=C(Nc1nccs1)c1cnn2ccc(-c3ccccc3C(F)(F)F)nc12 [Compound 506] | TAMRA EC1.5 [5]: A (EC1.5<1 μM); Emax [6]: ≥ 350% |
| B (EC1.5 1-25 μM) | ≥ 350% | – | – | Cc1cc(NC(=O)c2cnc3ccc(-c4ccccc4Cl)nn23)ccn1 [Compound 259] | – |
| A (EC1.5<1 μM) | ≥ 350% | – | – | Cc1nc2c(N3CCOCC3)cc(-c3ccccc3C(F)(F)F)nn2c1C(=O)Nc1cccnn1 [Compound 738, 2-methyl-8-morpholino-N-(pyridazin-3-yl)-6-(2-(trifluoromethyl)phenyl)imidazo[1,2-b]pyridazine-3-carboxamide] | – |
| A (EC1.5<1 μM) | ≥ 350% | – | – | CCOc1ccc(NC(=O)c2c(C)nc3ccc(-c4ccccc4C(F)(F)F)nn23)nn1 [Compound 666] | – |
| A (EC1.5<1 μM) | ≥ 350% | – | – | COc1ccc(NC(=O)c2c(C)nn3ccc(-c4ccccc4C(F)(F)F)nc23)nn1 [Compound 696] | – |
| – | – | B (EC1.5 1-25 μM) | < 350% | O=C(Nc1cnccn1)c1cnc2ccc(-c3cccc(F)c3Cl)nn12 [Compound 184] | – |
| – | – | B (EC1.5 1-25 μM) | < 350% | O=C(Nc1cccnc1)c1cnc2ccc(-c3ccccc3C(F)(F)F)nn12 [Compound 108] | – |
| – | – | B (EC1.5 1-25 μM) | < 350% | O=C(Nc1nc(CN2CCOCC2)cs1)c1cnc2ccc(-c3ccc(F)cc3F)nn12 [Compound 42] | – |
| – | – | C (EC1.5>25 μM) | < 350% | O=C(Nc1nccs1)c1cnc2ccc(-c3cccc(N4CCOCC4)c3)nn12 [Compound 9] | – |
| A (EC1.5<1 μM) | ≥ 350% | – | – | CCOc1nccc(NC(=O)c2cnn3ccc(-c4ccccc4C(F)(F)F)nc23)n1 [Compound 807] | – |
| – | – | C (EC1.5>25 μM) | < 350% | CS(=O)(=O)c1ccccc1-c1ccc2ncc(C(=O)Nc3ccncc3)n2n1 [Compound 187] | – |
| A (EC1.5<1 μM) | ≥ 350% | – | – | Cc1cc(NC(=O)c2c(C)nn3ccc(-c4ccccc4C(F)(F)F)nc23)nc(C)n1 [Compound 787] | – |
